Reference: ChEMBL document CHEMBL5154747, “Discovery of new carbonic anhydrase IX inhibitors as anticancer agents by toning the hydrophobic and hydrophilic rims of the active site to encounter the dual-tail approach” (Eur J Med Chem, 2022)

Key:
Assay type in all cases: functional
CCRF-CEM = test: Anticancer activity against human CCRF-CEM cells assessed as cell growth inhibition incubated for 48 hrs by SRB assay
HL-60(TB) = test: Anticancer activity against human HL-60(TB) cells assessed as cell growth inhibition incubated for 48 hrs by SRB assay
K562 = test: Anticancer activity against human K562 cells assessed as cell growth inhibition incubated for 48 hrs by SRB assay
RPMI-8226 = test: Anticancer activity against human RPMI-8226 cells assessed as cell growth inhibition incubated for 48 hrs by SRB assay
EKVX = test: Anticancer activity against human EKVX cells assessed as cell growth inhibition incubated for 48 hrs by SRB assay
HOP-62 = test: Anticancer activity against human HOP-62 cells assessed as cell growth inhibition incubated for 48 hrs by SRB assay
HOP-92 = test: Anticancer activity against human HOP-92 cells assessed as cell growth inhibition incubated for 48 hrs by SRB assay
NCI-H226 = test: Anticancer activity against human NCI-H226 cells assessed as cell growth inhibition incubated for 48 hrs by SRB assay
NCI-H460 = test: Anticancer activity against human NCI-H460 cells assessed as cell growth inhibition incubated for 48 hrs by SRB assay
NCI-H522 = test: Anticancer activity against human NCI-H522 cells assessed as cell growth inhibition incubated for 48 hrs by SRB assay
COLO 205 = test: Anticancer activity against human COLO 205 cells assessed as cell growth inhibition incubated for 48 hrs by SRB assay
HCC 2998 = test: Anticancer activity against human HCC 2998 cells assessed as cell growth inhibition incubated for 48 hrs by SRB assay
HCT-116 = test: Anticancer activity against human HCT-116 cells assessed as cell growth inhibition incubated for 48 hrs by SRB assay
KM12 = test: Anticancer activity against human KM12 cells assessed as cell growth inhibition incubated for 48 hrs by SRB assay
SF-268 = test: Anticancer activity against human SF-268 cells assessed as cell growth inhibition incubated for 48 hrs by SRB assay
SF-295 = test: Anticancer activity against human SF-295 cells assessed as cell growth inhibition incubated for 48 hrs by SRB assay
SF-539 = test: Anticancer activity against human SF-539 cells assessed as cell growth inhibition incubated for 48 hrs by SRB assay
SNB-19 = test: Anticancer activity against human SNB-19 cells assessed as cell growth inhibition incubated for 48 hrs by SRB assay
SNB-75 = test: Anticancer activity against human SNB-75 cells assessed as cell growth inhibition incubated for 48 hrs by SRB assay
U-251 = test: Anticancer activity against human U-251 cells assessed as cell growth inhibition incubated for 48 hrs by SRB assay
M14 = test: Anticancer activity against human M14 cells assessed as cell growth inhibition incubated for 48 hrs by SRB assay
MDA-MB-435 = test: Anticancer activity against human MDA-MB-435 cells assessed as cell growth inhibition incubated for 48 hrs by SRB assay
SK-MEL-28 = test: Anticancer activity against human SK-MEL-28 cells assessed as cell growth inhibition incubated for 48 hrs by SRB assay
UACC-257 = test: Anticancer activity against human UACC-257 cells assessed as cell growth inhibition incubated for 48 hrs by SRB assay
UACC-62 = test: Anticancer activity against human UACC-62 cells assessed as cell growth inhibition incubated for 48 hrs by SRB assay
OVCAR-3 = test: Anticancer activity against human OVCAR-3 cells assessed as cell growth inhibition incubated for 48 hrs by SRB assay
OVCAR-5 = test: Anticancer activity against human OVCAR-5 cells assessed as cell growth inhibition incubated for 48 hrs by SRB assay
NCI/ADR-RES = test: Anticancer activity against human NCI/ADR-RES cells assessed as cell growth inhibition incubated for 48 hrs by SRB assay
SK-OV-3 = test: Anticancer activity against human SK-OV-3 cells assessed as cell growth inhibition incubated for 48 hrs by SRB assay
ACHN = test: Anticancer activity against human ACHN cells assessed as cell growth inhibition incubated for 48 hrs by SRB assay
CAKI-1 = test: Anticancer activity against human CAKI-1 cells assessed as cell growth inhibition incubated for 48 hrs by SRB assay
SN12C = test: Anticancer activity against human SN12C cells assessed as cell growth inhibition incubated for 48 hrs by SRB assay
UO-31 = test: Anticancer activity against human UO-31 cells assessed as cell growth inhibition incubated for 48 hrs by SRB assay
PC-3 = test: Anticancer activity against human PC-3 cells assessed as cell growth inhibition incubated for 48 hrs by SRB assay
MCF7 = test: Anticancer activity against human MCF7 cells assessed as cell growth inhibition incubated for 48 hrs by SRB assay
Hs-578T = test: Anticancer activity against human Hs-578T cells assessed as cell growth inhibition incubated for 48 hrs by SRB assay
BT-549 = test: Anticancer activity against human BT-549 cells assessed as cell growth inhibition incubated for 48 hrs by SRB assay
T47D = test: Anticancer activity against human T47D cells assessed as cell growth inhibition incubated for 48 hrs by SRB assay
MDA-MB-468 = test: Anticancer activity against human MDA-MB-468 cells assessed as cell growth inhibition incubated for 48 hrs by SRB assay
[1] = read-out: LC50 (the source's name)

## NS(=O)(=O)c1ccc(Nc2nc(N/N=C/c3ccc(C(F)(F)F)cc3)nc(Nc3ccccc3)n2)cc1
CCRF-CEM
  GI50: 3 µM
CCRF-CEM; [1]
  CC50: > 100 µM
HL-60(TB)
  GI50: 3.59 µM
HL-60(TB); [1]
  CC50: > 100 µM
K562
  GI50: 3.51 µM
K562; [1]
  CC50: > 100 µM
RPMI-8226
  GI50: 2.77 µM
  LC50 (concentration killing 50% of cells): > 100 µM
EKVX
  GI50: 2.62 µM
EKVX; [1]
  CC50: 40.3 µM
HOP-62
  GI50: 2.15 µM
HOP-62; [1]
  CC50: 69.7 µM
HOP-92
  GI50: 2.38 µM
HOP-92; [1]
  CC50: 39.8 µM
NCI-H226
  GI50: 2.45 µM
NCI-H226; [1]
  CC50: > 100 µM
NCI-H460
  GI50: 3.02 µM
NCI-H460; [1]
  CC50: > 100 µM
NCI-H522
  GI50: 2.66 µM
NCI-H522; [1]
  CC50: 87.1 µM
COLO 205
  GI50: 1.86 µM
COLO 205; [1]
  CC50: 10.9 µM
HCC 2998
  GI50: 2.97 µM
HCC 2998; [1]
  CC50: 46.4 µM
HCT-116
  GI50: 3.1 µM
  LC50 (concentration killing 50% of cells): 64 µM
KM12
  GI50: 2.38 µM
KM12; [1]
  CC50: 24.8 µM
SF-268
  GI50: 3.51 µM
  LC50 (concentration killing 50% of cells): > 100 µM
SF-295
  GI50: 1.92 µM
SF-295; [1]
  CC50: 8.63 µM
SF-539
  GI50: 1.86 µM
SF-539; [1]
  CC50: 9.61 µM
SNB-19
  GI50: 3.46 µM
SNB-19; [1]
  CC50: 40.6 µM
SNB-75
  GI50: 2.05 µM
  LC50 (concentration killing 50% of cells): 37.5 µM
U-251
  GI50: 2.69 µM
U-251; [1]
  CC50: 71.4 µM
M14
  GI50: 2.51 µM
M14; [1]
  CC50: 63.3 µM
MDA-MB-435
  GI50: 2.07 µM
  LC50: 9.53 µM
SK-MEL-28
  GI50: 2.44 µM
SK-MEL-28; [1]
  CC50: 26.3 µM
UACC-257
  GI50: 2.42 µM
  LC50: 37.2 µM
UACC-62
  GI50: 2.35 µM
  LC50: 16.2 µM
OVCAR-3
  GI50: 3.32 µM
  LC50 (concentration killing 50% of cells): > 100 µM
OVCAR-5
  GI50: 2.96 µM
OVCAR-5; [1]
  CC50: 39.9 µM
NCI/ADR-RES
  GI50: 12.3 µM
NCI/ADR-RES; [1]
  CC50: > 100 µM
SK-OV-3
  GI50: 3.66 µM
  LC50: > 100 µM
ACHN
  GI50: 2.68 µM
ACHN; [1]
  CC50: 26.5 µM
CAKI-1
  GI50: 3.05 µM
CAKI-1; [1]
  CC50: 51.9 µM
SN12C
  GI50: 3 µM
  LC50: 86.6 µM
UO-31
  GI50: 1.88 µM
UO-31; [1]
  CC50: 15.7 µM
PC-3
  GI50: 2.8 µM
PC-3; [1]
  CC50: 78.5 µM
MCF7
  GI50: 2.18 µM
  LC50: 64.8 µM
Hs-578T
  GI50: 3.07 µM
  LC50 (concentration killing 50% of cells): > 100 µM
BT-549
  GI50: 2.79 µM
BT-549; [1]
  CC50: 37.2 µM
T47D
  GI50: 2.48 µM
  LC50: > 100 µM
MDA-MB-468
  GI50: 1.73 µM
MDA-MB-468; [1]
  CC50: 8.63 µM
